Series [1] has as its system mice of the CD-1 (ICR) line. The experiment in a line: Acute toxicity in mice after intragastric administration. In kind it is in vivo. The protocol: The study was performed on mice of the CD-1 (ICR) line (6-8 weeks, weight not less than 18 g) of both sexes. […] Mice administered doses were 3000 mg/kg, 2000 mg/kg, 1000 mg/kg, 500 mg/kg and 50 mg/kg.
For a further series, the system named is clinical enterococci. In words: MIC screening, summary for clinical enterococci. The settings on record: range over clinical enterococci. In kind it is cell-based. The protocol:
A comparative assessment of the spectrum of antibacterial action was carried out on archival and clinical strains of gram-positive and gram-negative microorganisms in accordance with the [Opredeleniye chuvstvitel'nosti mikroorganizmov k antibakterial'nym preparatam (Metodicheskiye ukazaniya MUK 4.2.1890-04). Utverzhdeny i vvedeny v deystviye Glavnym gosudarstvennym sanitarnym vrachom Rossiyskoy Federatsii G. G. Onishchenko 04.03.2004 g. Determination of the sensitivity of microorganisms to antibacterial drugs (Guidelines MUK 4.2.1890-04). Approved and put into effect by the Chief State Sanitary Doctor of the Russian Federation G. G. Onishchenko on 4 Mar. 2004].
The value of the minimum inhibitory concentration (MIC) was determined by the method of serial dilutions on Müller-Hinton broth using 96-well sterile plates. […] The growth of cultures was assessed visually, comparing the growth of microorganisms in the presence of test compounds with the growth of culture without them. […] The first lowest concentration of the studied substance (from a series of consecutive dilutions), where bacterial growth is not visually determined, is considered to be the minimum inhibitory concentration (MIC). MIC was determined by the method of serial dilutions in broth with increment=2, so the differences of neighboring dilutions are not considered to be significant. […]

Setting [2] is: both, CD-1 (ICR), mouse, in vivo.

Consider `CCCCCCCCCCCC[N+](C)(C)Cc1cnc(C[N+](C)(C)CCCCCCCCCCCC)c2c1COC(CC)O2` (stereo not shown) [Compound I, 5,8-(Bis(methylene (N, N-dimethyl-N-dodecylammonium))-2-ethyl-4H-[1,3]dioxino [4,5-c]pyridiniumdichloride], for which, in series [1] (acute toxicity, oral, mice), the “hazard class in accordance with GOST 12.1.007-76” value was 3rd class of moderately hazardous harmful substances. Further, the “toxicity class according to the Globally Harmonized System (GOST 32644-2014)” value in series [1] (acute toxicity, oral, mice) turned out to be 4th toxicity class. In series [1] (setting [2]), this molecule showed an LD16 of 788 mg/kg. In series [1] (setting [2]), this molecule showed an LD86 of 2623 mg/kg. Also, the “Number of died animals in the group” value in series [1] (both, CD-1 (ICR), mouse, in vivo, 50 mg/kg) is given as 0/6; in series [1] (both, CD-1 (ICR), mouse, in vivo, 500 mg/kg) it was 0/6; in series [1] (both, CD-1 (ICR), mouse, in vivo, 1000 mg/kg), 3/6; in series [1] (both, CD-1 (ICR), mouse, in vivo, 2000 mg/kg), 5/10; in series [1] (both, CD-1 (ICR), mouse, in vivo, 3000 mg/kg), 4/4. The “MIC for clinical enterococci” value in the series on clinical enterococci was in the range of 0.03 to 4 µg.
